The values below come from patent US8012944B2, “Method for treating cancer using IAP antisense oligomer and chemotherapeutic agent” (Pharmascience Inc., priority 2003, dated 2011).

One series concerns human XIAP protein. As to the kind of experiment: XIAP protein in H460 tumor xenografts (western blot). The format is in vivo, mouse xenograft. The method, then:
To correlate the tumor growth inhibitory effects of G4 AS oligonucleotides with XIAP protein expression, we examined the changes in XIAP expression at the end of the in vivo treatment with 15 mg/kg of G4 AS and SC oligonucleotides. At day 21 or 24 post-tumor inoculation when tumors reached 1 cm^3 in size (FIG. 17), tumors were harvested and lysates from tumor homogenates were used for western blot analysis. XIAP and β-actin antibodies against the human protein were used, allowing for determination of human XIAP levels obtained from tumor cells specimens without contamination from XIAP derived from mouse cells. […]
The cells or tumor tissue samples were lysed with ice-cold lysis buffer (50 mM Tris, 150 mM NaCl, 2.5 mM EDTA, 0.1% SDS, 0.5% sodium deoxycholate, 1% NP-40, 0.02% sodium azide) containing protease inhibitors (Complete-Mini protease inhibitor tablets; Boehringer Mannheim GmBH, Mannheim, Germany). […] Protein content in the lysed extracts was determined using a detergent-compatible Bio-Rad assay (Bio-Rad Labs, Hercules, Calif.). […] Proteins were detected by enhanced chemiluminescence (ECL; Amersham Pharmacia Biotech, Buckinghamshire, England) and visualized after exposure to Kodak autoradiography film. Scanning densitometry (Molecular Dynamics, Sunnyvale, Calif.) was performed to quantify band intensities by volume/area integration. […]

Series [1] deals with MDA-MB-435/LCC6 human breast carcinoma xenografts. As to the kind of experiment: Systemic (i.p.) PS-oligonucleotides in LCC6 breast carcinoma xenografts. Format: in vivo, female SCID-RAG2 mice. The conditions noted are these: 12.5 mg/kg i.p.; day 35, two weeks after the last treatment. The protocol: Initial systemic PS-oligonucleotide studies were designed without any chemotherapeutic agents. SCID-RAG2 mice were inoculated with H460 human lung carcinoma cells (s.c. shoulder injection of 10^6 cells) and treatments with G4 and F3 AS PS-oligonucleotides, as well as a scrambled control, were initiated three days after tumor inoculation. Nucleobase oligomer injections were administered i.p. at 12.5 mg/kg three times a week for three weeks. At the end of the treatment period, mean tumor sizes in the groups treated with either G4 or F3 AS oligonucleotides were ˜50% smaller than in the group treated with a scrambled control oligonucleotides (FIG. 15). The same treatment protocol was tested on female SCID-RAG2 mice inoculated orthotopically with MDA-MB-435/LCC6 human breast carcinoma cells. Two weeks after the last treatment (day 35) tumor volumes of mice treated with F3, C5 or G4 AS oligonucleotides were 70%, 60%, and 45%, respectively, smaller than vehicle controls (FIG. 16).
Efficacy experiments were conducted in male RAG2 immunodeficient mice bearing NCI-H460 tumours or female RAG2 mice bearing LCC6 tumors. Treatments were commenced on day 3 after tumor inoculation. Saline (controls), G4 AS oligonucleotides (5 or 15 mg/kg), or G4 SC oligonucleotides (5 or 15 mg/kg) were administered i.p. daily for five doses a week over a three week regimen. Vinorelbine (VNB, 5 or 10 mg/kg) was administered i.v. via the tail vein, either alone or in combination with oligonucleotides, at day 3, 7, 11 and 17 after tumor inoculation. When oligonucleotides were administered in combination with VNB, the drug treatment was performed four hours after ODN treatment.

Series [2] has as its system H460 cells. As to the kind of experiment: H460 cell growth, viability or death (MTT assay). The conditions noted are these: 1.2 μM. Format: cell-based, human. The method, then:
Growth inhibition of […] cells was determined by the colorimetric MTT cell viability/proliferation assay. In brief, cells were treated with liposome-oligonucleotide complexes for 4.5 h, then incubated for another 48 h at 37° C. in medium without transfection reagent or oligonucleotides in the presence or absence of anticancer drugs. MTT (25 μg/well) was added to each well, and the plates incubated for 3 h at 37° C. Following the incubation step, the colored formazan product was dissolved by the addition of 200 μl DMSO. Plates were read using the microtiter plate reader (Dynex Technologies Inc., Chantilly, Va.) at a wavelength of 570 nm. The percentage of surviving cells in wells treated with oligonucleotides was normalized to untreated controls. All assays were performed in triplicate.

Series [3] relates to H460 cells. As to the kind of experiment: Apoptotic flow cytometric assay (PI staining, hypo-diploid DNA content). Format: cell-based, human. Particulars: 1.2 μM, untreated control 16.6%. The method, then:
Cells were treated with liposome-oligonucleotide complexes for 4.5 h, and incubated for another 48 h in the medium without transfection reagent at 37° C. Following incubation, cells were harvested, washed twice with sample buffer (0.5% glucose in PBS without Ca^++ and Mg^++), and fixed in cold 70% ethanol at 4° C. for at least 18 hrs. Samples were centrifuged at 3000 rpm for 10 min, then resuspended in sample buffer containing 50 μg/ml propidium iodide (PI) and 400 U/ml RNase A. Samples were incubated for 30 min at room temperature and 30 min on ice, followed by flow cytometry analysis. EXPO Software (Applied Cytometry Systems, Sacramento, Calif.) was used to generate histograms, which were used to determine the cell cycle phase distribution after debris exclusion. The Sub G1/G0 cell fraction was considered as representative for apoptotic cells.
(Flow cytometry measures light scatter and fluorescence of single cells or particles in a stream.)

The next series has as its system pro-caspase-3, PARP. As to the kind of experiment: Pro-caspase-3 and PARP protein in H460 cells (western blot). The format is cell-based, human. Particulars: 1.2 μM. The protocol: One day prior to transfection, H460 cells were plated in 6- or 96-well tissue culture plates. Phosphorothioate antisense oligonucleotides were delivered into cells with Lipofectamine 2000 (Life Technologies) in the form of liposome-oligonucleotide complexes. Following a 4.5 or 6 h transfection, the transfection medium was replaced with RPMI medium containing 10% FBS, and the cells incubated for another 24 or 48 h.
The cells or tumor tissue samples were lysed with ice-cold lysis buffer (50 mM Tris, 150 mM NaCl, 2.5 mM EDTA, 0.1% SDS, 0.5% sodium deoxycholate, 1% NP-40, 0.02% sodium azide) containing protease inhibitors (Complete-Mini protease inhibitor tablets; Boehringer Mannheim GmBH, Mannheim, Germany). After incubation for 30 min on ice, samples were centrifuged at 10,000 rpm for 15 min, and stored at −20° C. Protein content in the lysed extracts was determined using a detergent-compatible Bio-Rad assay (Bio-Rad Labs, Hercules, Calif.). Equal amounts of protein (40 μg/lane) were separated on 12% SDS-polyacrylamide gels or 4-15% gradient SDS-polyacrylamide pre-made gels (Bio-Rad) and transferred to nitrocellulose membranes. Primary antibodies against XIAP, Bcl-2 (DAKO, Glostrup, Denmark), Bax (Sigma, St. Louis, Mo.), β-actin (Sigma), caspase-3 (BD PharMingen, San Diego, Calif.), and PARP (BD PharMingen) were used. The secondary antibody was the appropriate horseradish-conjugated anti-mouse or anti-rabbit IgG (Promega, Madison, Wis.). Proteins were detected by enhanced chemiluminescence (ECL; Amersham Pharmacia Biotech, Buckinghamshire, England) and visualized after exposure to Kodak autoradiography film. Scanning densitometry (Molecular Dynamics, Sunnyvale, Calif.) was performed to quantify band intensities by volume/area integration. The amount of XIAP, caspase-3, Bcl-2 and Bax in cells was normalized to their respective lane β-actin levels, upon stripping and reprobing.
(In western blotting, separated proteins are transferred to a membrane and probed.)

On to “GCTGAGTCTCCATATTGCC [G4 AS] (chemistry not given here)”, for which the “down-regulation of XIAP protein in tumors vs control tumors” value with human XIAP protein (15 mg/kg, day 21 or 24, P<0.005) was “approximately 85%”. The “down-regulation of XIAP protein in tumor xenografts” value in the series with human XIAP protein (systemic administration) is 85%. Also, in series [1], the “tumor volumes smaller than vehicle controls” value was 45%. This sequence also showed a cell death with H460 cells [2] (H460 cells) of 60%. Also, the “reduction of H460 cell growth relative to untreated control” value in the series on H460 cells [2] (MTT, 48 hours after transfection) amounted to 55%. For the same sequence, the “hypo-diploid DNA content of cells” value in the series with H460 cells [3] is on record as 40.8%. Also, the “reduction of pro-caspase-3 protein levels compared to untreated control” value with pro-caspase-3, PARP is recorded as 60%.
